# How the values were obtained:
# Gram-negative bacteria = assay: Test I Bactericidal activity (viable count after exposure to drug); assay type: cell-based; conditions: final concentration of ImM, 15 min exposure, number of viable bacteria
# Method: A range of Gram-negative bacteria were grown at 37°C in aerobic shake culture in nutrient broth for 16 h. O.I ml of these cultures were each inoculated into 5 ml of fresh broth and the cultures incubated further, until the bacteria reached mid-logarithmic phase, when the culture was harvested by centrifugation and resuspended in Basal Medium 2 (J Bacteriol 117 (1974) 3O2-311) to an OD 1cm 620 mm = 0.2 (equivalent to 10^8 bacteria/ml). Test compound was added to the bacterial suspension to give a final concentration of ImM. After 15 min exposure to drug the number of viable bacteria was determined by serial dilution in sterile phosphate buffered saline (PBS), plating out onto McConkey agar plates and incubating for 16 h at 37°C.
# [1] = test system: S. typhimurium AG701 i50 (KdsA^ts); assay: Test III Inhibition of incorporation of 3H-arabinose-5-phosphate into LPS; assay type: cell-based, Salmonella typhimurium; conditions: S. typhimurium AG701 i50, 30°C, samples after 10 min
# Method: Arabinose-5-phosphate is a precursor of KDO in enteric bacteria. KdsA mutants of Salmonella typhimurium rapidly take up exogenous arabinose-5-phosphate and convert it to KDO which then appears exclusively in LPS (J. Biol. Chem. 255 (1980) 4257).
# S. typhimurium AG701 i50 (KdsA^ts) was grown overnight at 30°C in minimal Medium (Eur. J. Biochem. 107 (1980) 145-153) supplemented with 1% glycerol and 0.01 mM D-fucose. The next day 0.1 ml of overnight culture was added to fresh medium and the culture grown at 30°C until mid logarithmic phase - (OD [formula] mm = 0.2) when 50 µl of "H-arabinose-5-phosphate (Amersham; specific activity 72 µCi/ml)-was added. After 10 min 0.45 ml samples were taken, the bacteria colleced by filtration (Whatman GF/F glass fibre filter) and washed with 6 ^x Iml PBS followed by 100 ml boiling water. This procedure ensures that all radioactive counts recorded represent arabinose-5-phosphate incorporated into LPS as KDO (J. Biol. Chem. 255 (1980) 4257).
structure (smiles),measurement,setting,value
"C[C@H](N)C(=O)N[C@@H](C)C(=O)NC[C@@H](O)[C@H]1O[C@H](C(=O)O)C[C@@H](O)[C@H]1O [Compound 6, N-(L-alanyl-L-alanyl)-8-amino-2,6-anhydro-3,8-dideoxy-D-glycero-D-talo-octonic acid]",inhibitory action against the bacteria,Gram-negative bacteria,inhibitory action
same,incorporation of arabinose-5-phosphate into LPS / denovo LPS biosynthesis,[1],markedly inhibits

# Reference: patent publication EP0234178A1, “New 8-substituted derivatives of an anhydrooctonic acid, methods for their preparation, pharmaceutical preparations containing these and intermediates” (Astra Läkemedel Aktiebolag, priority 1985, dated 1987)
